Results published in patent US12187662B2, “FOXM1 inhibitor compositions and methods of using the same” (The Board of Trustees of the University of Illinois, priority 2018, dated 2025).
Entries after “also recorded” stand apart in the source; their conditions may differ. Where two headings read alike, the source gives them in different places. Values belong to the molecule of their own block, whether it stands above or below them.

Columns and labels:
MCF7 cells = experiment: Cell proliferation assay (WST-1), MCF7; type: cell-based, human
Description: (§1) All cells were tested for mycoplasma using Real-Time PCR Mycoplasma Detection Kit (Akron Biotech, Boca Raton, FL).
(§2) All assays were performed in triplicate.

MDA-MB-231 cells = experiment: Cell proliferation assay (WST-1), MDA-MB-231; type: cell-based, human
Description: as §1, §2

[1] = Pharmacokinetic studies in mice after single s.c. or oral dose; conditions: for half-life / AUC(0-t): female, CD-1, mouse, plasma
DT22 cells = experiment: Cell proliferation assay (WST-1), DT22; type: cell-based, human
Description: as §1, §2

breast cancer cell lines = experiment: Proliferation of breast cancer cell lines (panel, line not specified); type: cell-based, human; conditions: cell line not specified or several lines
Description: as §1, §2

[2] = tested on: FOXM1 target genes in MCF7 cells; experiment: FOXM1 target gene expression by qRT-PCR, MCF7; type: cell-based, human; conditions: MCF7, 24 h, at IC50 concentration
Description: (§3) RNA was extracted from cells and expression of different genes was monitored by qRT-PCR. Assays were run in triplicate. Values are mean±SEM. *, p<0.05; **, p<0.01; ***, p<0.001. RNA isolation and real-time PCR Total RNA was isolated using TRIzol (Invitrogen) and reverse transcribed using […] reverse transcriptase (New England BioLabs). Real-time PCR was performed using SYBRgreen PCR Master Mix (Roche) as described (Bergamaschi et al., Breast Cancer Res., 2014, 16:436). Relative mRNA levels of genes were normalized to the housekeeping gene 36B4, and fold change calculated relative to the vehicle treated samples. Results are the average±SD from at least two independent experiments carried out in triplicate. Primer sequences for the genes studied were obtained from the Harvard Primer Bank. Sequences are available on their website.

[3] = tested on: FOXM1 target genes in DT22 cells; experiment: FOXM1 target gene expression by qRT-PCR, DT22; type: cell-based, human; conditions: DT22, 24 h, at IC50 concentration
Text: as §3, with “Real-time PCR was performed using SYBRgreen PCR Master Mix (Roche) as described (Bergamaschi et al., Breast Cancer Res., 2014, 16:436).” left out

[4] = tested on: DT22 triple negative human breast tumor xenografts; experiment: DT22 triple negative breast tumor xenografts in NSG mice; type: in vivo, mouse
Description: In vivo breast cancer xenograft studies For examination of the growth of triple-negative DT22 breast tumors, intact female NOD/SCID-gamma (NSG) mice were used. DT-22 cells (1×10^6 cells/mouse) were injected s.c. into the right axial mammary gland. Mice received s.c. injection or oral gavage daily or every second or third day, as indicated, with vehicle or FOXM1 inhibitor compound, and tumor growth was monitored over time.

[5] = inhibition of cell proliferation, read-out: IC50 MCF7
[6] = Homo sapiens, MCF7, inhibition of cell proliferation, read-out: IC50 MCF7
[7] = sc, 40 mg/kg, PK s.c. AUC0-48, mice, 40 mg/kg s.c.
[8] = Homo sapiens, DT-22, inhibition of cell proliferation
[9] = Homo sapiens, MDA-MB-231, inhibition of cell proliferation, read-out: IC50 MDA-MB-231
[10] = Homo sapiens, MCF7, read-out: IC50 MCF7
[11] = sc, 60 mg/kg, PK s.c. AUC0-48, mice, 60 mg/kg s.c.
[12] = Homo sapiens, MDA-MB-231, read-out: IC50 MDA-MB-231

Molecule: 6-(4-((Z)-((5S,7S)-adamantan-2-ylidene)(4-chlorophenyl)methyl)phenoxy)-N,N-diethylhexan-1-amine [NB-54]
IC50 (MCF7 cells; [5]): 4 µM
IC50 (MDA-MB-231 cells; inhibition of cell proliferation, read-out: IC50 MDA-MB-231): 4 µM

IC50 (MCF7 cells; [6]): 1.5 to 2 µM
IC50 (MCF7 cells; [5]): 1.5 µM
half-life ([1]; po, 40 mg/kg): 15.1 h
AUC(0-t) ([1]; po, 40 mg/kg, PK p.o. AUC0-48, mice, 40 mg/kg p.o.): 5.6 µM·h
half-life ([1]; sc, 40 mg/kg): 22.5 h
AUC(0-t) [1, 7]: 13.3 µM·h
Molecule: CCN(CC)CCCCCCOc1ccc(C(=C2C3CC4CC(C3)CC2C4)c2ccc(O)cc2)cc1 [NB-41, 4-((E)-((5R,7R)-adamantan-2-ylidene)(4-((6-(diethylamino)hexyl)oxy)phenyl)methyl)phenol]
IC50 (DT22 cells; [8]): 1.5 to 2 µM
IC50 (DT22 cells; inhibition of cell proliferation, read-out: IC50 DT-22): 2 µM

IC50 (MCF7 cells; [6]): 3.5 µM
IC50 (MDA-MB-231 cells; [9]): < 5 µM
Molecule: CCN(CC)CCOCCOCCOc1ccc(C(=C2C3CC4CC(C3)CC2C4)c2ccc(OCCOCCOCCN(CC)CC)cc2)cc1 [NB-53, 2,2′-(((((((((5r,7r)-adamantan-2-ylidene)methylene)bis(4,1-phenylene))bis(oxy))bis(ethane-2,1-diyl))bis(oxy))bis(ethane-2,1-diyl))bis(oxy))bis(N,N-diethylethan-1-amine)]

IC50 (MCF7 cells; [6]): 0.8 µM
IC50 for inhibition of proliferation of breast cancer cell lines (breast cancer cell lines): submicromolar
PK p.o. AUC0-48 ([1]; mice, 60 mg/kg p.o.): too low to measure
PK s.c. AUC0-48 ([1]; mice, 60 mg/kg s.c.): 6.1 µM·h
PK s.c. t1/2 ([1]; mice, 60 mg/kg s.c.): 45.6 h
Molecule: CN1CCN(CCCCCCOc2ccc(C(=C3C4CC5CC(C4)CC3C5)c3ccc(OCCCCCCN4CCN(C)CC4)cc3)cc2)CC1 [NB-66, 4,4′-((((((5r,7r)-adamantan-2-ylidene)methylene)bis(4,1-phenylene))bis(oxy))bis(hexane-6,1-diyl))bis(1-methylpiperazine)]

Molecule: c1cc(C(c2ccc(OCCCCCCN3CCCCC3)cc2)=C2[C@H]3C[C@@H]4C[C@@H](C[C@H]2C4)C3)ccc1OCCCCCCN1CCCCC1 [NB-70, 1,1′-((((((5r,7r)-Adamantan-2-ylidene)methylene)bis(4,1-phenylene))bis(oxy))bis(hexane-6,1-diyl))dipiperidine]
IC50 (MCF7 cells; [10]): 0.7 µM
half-life ([1]; po, 60 mg/kg): 90.9 h
AUC(0-t) ([1]; po, 60 mg/kg, PK p.o. AUC0-48, mice, 60 mg/kg p.o.): 6 µM·h
AUC(0-t) [1, 11]: 10.2 µM·h
IC50 (MDA-MB-231 cells; [12]): 0.9 µM

Molecule: C[N+]1(CCCCCCOc2ccc(C(c3ccc(OCCCCCC[N+]4(C)CCCCC4)cc3)=C3C4C[C@H]5C[C@@H](C4)C[C@H]3C5)cc2)CCCCC1 [NB-71, 1,1′-((((((5r,7r)-adamantan-2-ylidene)methylene)bis(4,1-phenylene))bis(oxy))bis(hexane-6,1-diyl))bis(1-methylpiperidin-1-ium) diodide]
IC50 (MCF7 cells; [10]): 1.1 µM
half-life ([1]; sc): 25 to 40 h
half-life ([1]; sc, 60 mg/kg): 119 h
AUC(0-t) [1, 11]: 364 µM·h
Blood levels after oral administration ([1]; mice, oral, doses of FIGS. 6A-6B): very low levels
Blood levels after s.c. injection ([1]; mice, s.c., doses of FIGS. 6A-6B): very high blood levels
IC50 (MDA-MB-231 cells; [12]): 0.5 µM
IC50 (DT22 cells; [8]): 0.8 µM

IC50 (MCF7 cells; [6]): 2.7 µM
Molecule: c1cc(C(=C2C3CC4CC(C3)CC2C4)c2ccc(OCCCCCCCCN3CCCCCC3)cc2)ccc1OCCCCCCCCN1CCCCCC1 [NB-80, 1,1′-((((((5r,7r)-adamantan-2-ylidene)methylene)bis(4,1-phenylene))bis(oxy))bis(octane-8,1-diyl))bis(azepane)]
IC50 (DT22 cells; [8]): 3.4 µM

Molecule: C[N+]1(CCCCCCCCOc2ccc(C(=C3C4CC5CC(C4)CC3C5)c3ccc(OCCCCCCCC[N+]4(C)CCCCCC4)cc3)cc2)CCCCCC1.[I-].[I-] [NB-81, 1,1′-((((((5r,7r)-adamantan-2-ylidene)methylene)bis(4,1-phenylene))bis(oxy))bis(octane-8,1-diyl))bis(1-methylazepan-1-ium) diiodide]
IC50 (MCF7 cells; [6]): 0.6 µM
Outcome of animals in PK study ([1]; mice, 40 mg/kg s.c adm.): Died at 40 mg/kg s.c adm.
IC50 (DT22 cells; [8]): 1.6 µM

Molecule: C[N+]1(CCCCOc2ccc(C(=C3C4CC5CC(C4)CC3C5)c3ccc(OCCCC[N+]4(C)CCCCC4)cc3)cc2)CCCCC1 [NB-86, 1-(4-(4-((E)-((5R,7R)-adamantan-2-ylidene)(4-(4-(1-metheyliumylpiperidin-1-ium-1-yl)butoxy)phenyl)methyl)phenoxy)butyl)-1-methylpiperidin-1-ium diiodide]
IC50 (MCF7 cells; [6]): 1.4 µM
IC50 (MDA-MB-231 cells; [9]): 1.1 µM
IC50 (DT22 cells; [8]): 1.9 µM

IC50 (MCF7 cells; [6]): 1.7 µM
IC50 (MDA-MB-231 cells; [9]): 0.9 µM
Molecule: C[N+]1(CCCCOc2ccc(C(=C3C4CC5CC(C4)CC3C5)c3ccc(OCCCC[N+]4(C)CCCCCC4)cc3)cc2)CCCCCC1 [NB-87, 1,1′-((((((5r,7r)-adamantan-2-ylidene)methylene)bis(4,1-phenylene))bis(oxy))bis(butane-4,1-diyl))bis(1-methylazepan-1-ium) diiodide]
IC50 (DT22 cells; [8]): 1.5 µM

IC50 (MCF7 cells; [6]): 1.7 µM
IC50 (MDA-MB-231 cells; [9]): 0.7 µM
Molecule: C[N+]1(CCCCCOc2ccc(C(=C3C4CC5CC(C4)CC3C5)c3ccc(OCCCCC[N+]4(C)CCCCC4)cc3)cc2)CCCCC1 [NB-88, 1,1′-((((((5r,7r)-adamantan-2-ylidene)methylene)bis(4,1-phenylene))bis(oxy))bis(pentane-5,1-diyl))bis(1-methylpiperidin-1-ium) diiodide]
IC50 (DT22 cells; [8]): 1.2 µM

IC50 (MCF7 cells; [6]): 0.6 µM
IC50 (MCF7 cells; [5]): 0.7 µM
IC50 (MDA-MB-231 cells; [9]): 0.5 µM
Molecule: C[N+]1(CCCCCOc2ccc(C(=C3C4CC5CC(C4)CC3C5)c3ccc(OCCCCC[N+]4(C)CCCCCC4)cc3)cc2)CCCCCC1 [NB-89, 1,1′-((((((5r,7r)-adamantan-2-ylidene)methylene)bis(4,1-phenylene))bis(oxy))bis(pentane-5,1-diyl))bis(1-methylazepan-1-ium) diiodide]
IC50 (DT22 cells; [8]): 1.1 µM

Molecule: CC[N+](C)(CC)CCCCCCOc1ccc(C(c2ccc(OCCCCCC[N+](C)(CC)CC)cc2)=C2C3C[C@H]4C[C@@H](C3)C[C@H]2C4)cc1 [NB-115, 6-(4-(((5r,7r)-adamantan-2-ylidene)(4-((6-(diethyl(methyl)-λ^4-azaneyl)hexyl)oxy)phenyl)methyl)phenoxy)-N,N-diethyl-N-methylhexan-1-aminium diiodide]
IC50 (MCF7 cells; [10]): 1.1 µM
Expression of ATF3 (gene suppressed by FOXM1) [2]: increased
Expression of FOXM1 stimulated target genes (FOXM1C, AURKB, CCNB1, PLK1) [2]: significantly reduced
half-life ([1]; sc): 25 to 40 h
AUC(0-t) [1, 7]: 746 µM·h
Expression of ATF3 (gene suppressed by FOXM1) [3]: increased
Expression of FOXM1 stimulated target genes (FOXM1C, AURKB, CCNB1, PLK1) [3]: significantly reduced
Tumor growth in vivo, low doses ([4]; 5 or 10 mg/kg s.c. every second or third day): greatly suppress tumor growth
Growth of DT22-Luc xenograft tumors, low doses ([4]; NB-115 s.c. daily 2 or 6 mg/kg, NB-63 s.c. daily 20 mg/kg until day 20, then 10 mg/kg every other day): suppress the growth; also recorded: effective in suppressing the growth
Animal body weight ([4]; same low-dose regimens as tumor study (FIG. 14B)): do not affect; also recorded: little impact

IC50 (MCF7 cells; [6]): 1.1 µM
Molecule: CC[N+](C)(CCO)CCCCCCOc1ccc(C(=C2C3CC4CC(C3)CC2C4)c2ccc(OCCCCCC[N+](C)(CC)CCO)cc2)cc1 (stereo not drawn) [NB-134, 6,6′-(((((5r,7r)-adamantan-2-ylidene)methylene)bis(4,1-phenylene))bis(oxy))bis(N-ethyl-N-(2-hydroxyethyl)-N-methylhexan-1-aminium) diiodide]
IC50 (DT22 cells; [8]): 1.5 µM
